In PubChem BioAssay (NCI):
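Assay format: 96-well plates, 48-hour exposure. TGI: total growth inhibition.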

Legend:
Test in all cases: NCI tumour cell line growth inhibition, 48 h
[1] = test system: IGROV1 ovarian
[2] = test system: UACC-257 melanoma
[3] = test system: SK-MEL-2 melanoma
[4] = test system: MALME-3M melanoma
[5] = test system: COLO 205 colon
[6] = test system: HCC-2998 colon
[7] = test system: RXF 393 renal
[8] = test system: U251 CNS
[9] = test system: SF-268 CNS
[10] = test system: SF-539 CNS
[11] = test system: OVCAR-5 ovarian
[12] = test system: OVCAR-3 ovarian
[13] = test system: OVCAR-4 ovarian
[14] = test system: BT-549 breast
[15] = test system: SN12C renal
[16] = test system: HL-60(TB) leukemia
[17] = test system: HS 578T breast
[18] = test system: HCT-116 colon

SMILES	TGI [1] [µM]	TGI [2] [µM]	TGI [3] [µM]	TGI [4] [µM]	TGI [5] [µM]	TGI [6] [µM]	TGI [7] [µM]	TGI [8] [µM]	TGI [9] [µM]	TGI [10] [µM]	TGI [11] [µM]	TGI [12] [µM]	TGI [13] [µM]	TGI [14] [µM]	TGI [15] [µM]	TGI [16] [µM]	TGI [17] [µM]	TGI [18] [µM]
CCOP(=O)(OCC)/C(C#N)=C/c1cn(C)cn1	> 100	> 100	> 100	> 100	> 100	> 100	> 100	> 100	> 100	> 100	> 100	> 100	> 100	> 100	> 100			
Cc1ccc(N=N/C(=N\NC(=O)c2ccc(C)cc2)c2ccc(N(CCC#N)CCC#N)cc2C)cc1	60.6	> 100	51.6		> 100	> 100	> 100	> 100	> 100	45.1	> 100	> 100	> 100			> 100	70	
CC1=Nc2nc(Cl)cn2C(=O)C1(Cl)Cl	> 10		> 10	> 10	> 10	> 10	> 10	> 10	> 10	> 10	> 10	> 10	> 10		> 10	> 10	> 10	> 10
C[Si](C)(OCCS(=O)(=O)O)C1(Cc2cccc3ccccc23)S(=O)(=O)OCCOS1(=O)=O	36.3	80.1	46.3		25.3	30.7		63.7	79.5	39.5	33.1	25.9	52.3	33.5	41.3	51.8	95	37.8
